Measured values as given in ChEMBL document CHEMBL1133076, “The design, synthesis and activity of non-ATP competitive inhibitors of pp60(c-src) tyrosine kinase. Part 1: hydroxynaphthalene derivatives” (Bioorg Med Chem Lett, 2000).
Active and inactive are the calls of the source.

What was measured:
[1] = target: T1, Proto-oncogene tyrosine-protein kinase Src (Homo sapiens, UniProt P12931); assay: nhibition of human purified recombinant pp60c-src tyrosine kinase at 100 uM (Inactive)
[2] = target: T1, Proto-oncogene tyrosine-protein kinase Src; assay: Inhibition of human purified recombinant pp60c-src tyrosine kinase at 100 uM
[3] = target: T1, Proto-oncogene tyrosine-protein kinase Src; assay: Inhibition of human purified recombinant p60 c-Src tyrosine kinase at 100 uM
[4] = target: T1, Proto-oncogene tyrosine-protein kinase Src; assay: Inhibition of human purified recombinant pp60c-src tyrosine kinase

T1 sequence (P12931 2-536 limits assumed): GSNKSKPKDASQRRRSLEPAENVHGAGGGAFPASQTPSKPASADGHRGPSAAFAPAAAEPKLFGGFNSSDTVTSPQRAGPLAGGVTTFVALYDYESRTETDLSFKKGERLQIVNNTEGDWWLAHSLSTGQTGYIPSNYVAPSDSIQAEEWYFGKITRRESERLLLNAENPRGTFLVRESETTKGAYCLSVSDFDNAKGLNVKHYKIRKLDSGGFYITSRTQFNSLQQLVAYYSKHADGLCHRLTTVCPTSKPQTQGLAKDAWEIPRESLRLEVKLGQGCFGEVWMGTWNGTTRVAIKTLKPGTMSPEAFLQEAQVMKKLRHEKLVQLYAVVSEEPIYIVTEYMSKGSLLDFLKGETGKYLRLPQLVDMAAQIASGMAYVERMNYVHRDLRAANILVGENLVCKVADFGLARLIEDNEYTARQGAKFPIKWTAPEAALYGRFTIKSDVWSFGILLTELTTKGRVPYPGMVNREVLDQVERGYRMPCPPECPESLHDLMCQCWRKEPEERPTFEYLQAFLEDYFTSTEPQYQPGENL

SMILES	inhibition [2] [%]	further results
COC(=O)c1cc2ccccc2cc1N	–	inhibition [1]: inactive
COc1ccc(CNC(=O)c2cc3cccc(O)c3cc2O)cc1	14	–
Oc1cc(O)cc(/C=C/c2ccc(O)c(O)c2)c1	–	inhibition [3]: 41%
O=C(NCc1ccc(O)cc1)c1cc2ccc(O)cc2cc1O	42	–
O=C(NCc1ccc(O)cc1)c1cc2cccc(O)c2cc1O	–	inhibition [3]: 49%
O=C(Nc1ccccc1O)c1cc2cccc(O)c2cc1O	12	–
O=C(Nc1cccc(O)c1)c1cc2ccc(O)cc2cc1O	89	–
O=C(Nc1cccc(O)c1)c1ccc2cc(O)ccc2c1	45	–
Cc1cc(O)c2c(c1)C(=O)c1cc(O)cc(O)c1C2=O	22	–
COc1ccccc1CNC(=O)c1cc2ccc(O)cc2cc1O	–	inhibition [1]: inactive
O=C(Nc1cccc(O)c1)c1cc2cccc(O)c2cc1O	51	IC50 [4]: 150 µM
O=C(Nc1ccccc1O)c1cc2ccc(O)cc2cc1O	39	–
COC(=O)c1cc2cccc(O)c2cc1O	5	–
O=C(Nc1ccc(O)cc1O)c1cc2cccc(O)c2cc1O	14	–
COc1ccccc1CNC(=O)c1cc2cccc(O)c2cc1O	13	–
COc1ccc(NC(=O)c2cc3cccc(O)c3cc2O)cc1	35	–
COC(=O)c1cc2ccc(O)cc2cc1O	47	–
COc1cccc(NC(=O)c2cc3cccc(O)c3cc2O)c1	33	–
O=C(Nc1ccc(O)cc1)c1cc2ccc(O)cc2cc1O	23	–
O=C(NCc1ccccc1O)c1cc2ccc(O)cc2cc1O	42	–
O=C(NCc1ccccc1O)c1cc2cccc(O)c2cc1O	–	inhibition [3]: 41%
O=C(NCc1cccc(O)c1)c1cc2ccc(O)cc2cc1O	55	–
